Columns and labels:
animal models of stroke = conditions: administered 24-hours after stroke; cited from earlier work
[1] = test system: rat model of stroke (transient MCAO); experiment: tMCAO rat stroke model: body swing test; type: in vivo
Experimental: (§1) Group 1M: 20 tMCAO animals treated twice-a-day with vehicle from Day 3 (day 1 being day of stroke surgery) to Day 42 (via PO gavage)
(§2) Group 2M: 22 tMCAO animals treated twice-a-day with VX-745 (1.5 mg/kg) from Day 3 (day 1 being day of stroke surgery) to Day 42 (via PO gavage)
(§3) Group 3M: 21 tMCAO animals treated twice-a-day with VX-745 (4.5 mg/kg) from Day 3 (day 1 being day of stroke surgery) to Day 42 (via PO gavage)
(§4) Transient middle cerebral artery occlusion was performed according to the method described in R. Schmid-Elsaesser et al., Stroke, 29(10):2162-2170 (1998). The right Common Carotid Artery (CCA) was exposed through a midline neck incision and carefully dissected free from surrounding nerves and fascia—from its bifurcation to the base of the skull. The occipital artery branches of the ECA (External Carotid Artery) were then isolated, and these branches were dissected and coagulated. […]
The rat was held approximately one inch from the base of its tail. […] A swing was recorded whenever the rat moved its head out of the vertical axis to either side. Before attempting another swing, the rat had must return to the vertical position for the next swing to be counted. Twenty (20) total swings were counted. […] Body swing scores were expressed as a percentage of rightward over total swings. […]

[2] = test system: cytokine production (TNF-α and IL-1β) in whole blood; conditions: inhibition of cytokine production (anti-inflammatory activity); cited from earlier work
IL-1β = IL-1β ELISA of brain at termination of tMCAO study; type: in vivo, rat; conditions: right minus left hemisphere; Groups 2M and 3M versus 1M; n=18 per group
Excerpt: The brains of all animals were harvested on Day 44. Rats were sacrificed by CO2 inhalation. Brains were harvested from all animals in each group, divided to left and right hemisphere, weighed, and snap frozen.
Brains were harvested at study termination. Each brain was dissected into two hemispheres and each hemisphere was weighed and enclosed into tubes marked Left or Right. Each tube was immediately frozen in liquid nitrogen and stored at (−80)° C. The tissues were defrosted and homogenized in 1 ml/200 mg tissue of 20 mM Tris-HCL pH 7.4 containing a protease inhibitor cocktail (50 μl/ml). Samples were centrifuged at 10,000 g for 15 min at 4°. Clear supernatants were aliquoted (150 μl/aliquot) and stored at (−80)° C. until ELISA assays were performed. ELISA assay was executed according to kit instructions. Standards and samples were tested in duplicates.
Following study termination, animals were also tested for IL-1β brain levels using the ELISA system (see FIG. 8 for standard curves). The variability of the results was too large to allow definitive conclusions. All the results below the Lower Limit of Quantification (LLOQ) were assigned the LLOQ value of 5 pg/ml. Then, results for the uninjured left side were subtracted from the results of the right side. The distribution for individual rats is given in the figure below (n=18 in each of the study groups) (FIG. 9).

[3] = test system: rat model of stroke (transient MCAO); experiment: tMCAO rat stroke model: stepping test; type: in vivo; conditions: Groups 2M (1.5 mg/kg) and 3M (4.5 mg/kg), PO twice a day; Week 4 up to Week 6
Experimental: as §1, §2, §3, §4
Animals were tested for forelimb akinesia in a stepping test (ST). The animal was held with its hind limbs fixed in one hand and the forelimb, not to be monitored, in the other, while the unrestrained fore-paw touches the table. The number of adjusting steps were counted while the animal was moved sideways along the table surface (85 cm during approximately five seconds), in the forehand & backhand direction for both forelimbs. […]

[4] = tMCAO study: body weight, clinical signs, mortality; type: in vivo, rat
Experimental: Altogether 76 adult male Sprague Dawley rats, purchased from Harlan Laboratories, (Israel), and weighing 300-350 g were used for the experiment. Animals were housed at a standard temperature (20-24° C.) and in a light-controlled environment (12 hours light/12 hours dark) with ad libitum access to food and water.
as §1, §2, §3
Animals were handled at a minimum for three days before the surgery. Baseline measures were taken before stroke was induced. Stroke surgery occurred on Day 1. On Day 2, 24 hours post-stroke surgery, Neuroscore testing was performed. Only animals reaching and exceeding Neuroscore criteria was included in the study. On Days 3-42, treatment with vehicle or VX-745 was administered twice a day for 40 days via PO (oral) gavage for all groups. Behavioral tests for all groups were conducted on weeks 4 and 6. Animals were sacrificed on Day 44 and brains were harvested.
Statistical analysis was performed when applicable by two-way ANOVA for repeated measures, followed by Bonferroni post-hoc tests for all the data presented in the results section (*p<0.05; **p<0.01; ***p<0.001).

[5] = test system: rat model of stroke (transient MCAO); experiment: tMCAO rat stroke model: Neuroscore (mNSS); type: in vivo; conditions: Groups 2M (1.5 mg/kg) and 3M (4.5 mg/kg), PO twice a day from Day 3 to Day 42
Experimental: as §1, §2, §3
as §4, with “coagulated. The ECA was dissected further distally and coagulated along with the terminal lingual and maxillary artery branches, which was then divided. The ICA (Internal Carotid Artery) was isolated and carefully separated from the adjacent vagus nerve, and the pterygopalatine artery was ligated close to its origin with a 5-0 nylon suture (SMI, Belgium).” for “coagulated.”

[6] = test system: rat model of stroke (transient MCAO); experiment: tMCAO rat stroke model: forelimb placement test; type: in vivo; conditions: Groups 2M (1.5 mg/kg) and 3M (4.5 mg/kg), PO twice a day; Week 4 and Week 6
Experimental: as §1, §2, §3
as §4, with “coagulated. The ECA was dissected further distally and coagulated along with the terminal lingual and maxillary artery branches, which was then divided. The ICA (Internal Carotid Artery) was isolated and carefully separated from the adjacent vagus nerve, and the pterygopalatine artery was ligated close to its origin with a 5-0 nylon suture (SMI, Belgium).” for “coagulated.”

[7] = test system: IL-1β production and signaling; conditions: cited from earlier work
[8] = treatment of rheumatoid arthritis; cited from earlier work
cytokine signaling = conditions: cited from earlier work
[9] = brain distribution in pre-clinical studies; type: in vivo
Excerpt: The inhibition of MAPK by VX-745 blocks the downstream synthesis of inflammatory cytokines TNF-α and IL-1β. […] VX-745 preferentially distributes to the brain with drug concentrations in the brain in pre-clinical studies being approximately two-fold higher than in the blood. Stroke

Structure (SMILES) | effect on recovery from neurologic deficit (animal models of stroke) | body swing test (difference between left turn and right turn) versus vehicle control group 1M ([1]; Groups 2M (1.5 mg/kg) and 3M (4.5 mg/kg), PO twice a day) | body swing test, extent of recovery ([1]; particularly in the 4.5 mg/kg dose group) | whole blood IC50 [2] [ng/mL] | IL-1β levels in the brain at study termination, between the groups (IL-1β) | stepping test (left forelimb), number of steps versus vehicle control group 1M [3] | body weight, differences between groups ([4]; all groups through the study, two-way ANOVA, Bonferroni) | rats that died after treatment initiation ([4]; group 2M (1.5 mg/kg), within two weeks of treatment initiation) | general clinical signs, differences between groups ([4]; tMCAO rats, 1.5 and 4.5 mg/kg PO twice a day) | neuroscore delta (change from Day 2 to Week 4 or Week 6) versus vehicle control group 1M [5] | absolute neuroscore versus vehicle control group 1M ([5]; Weeks 4 and 6) | forelimb placement test score versus vehicle control group 1M [6] | IL-1β production and signaling in vitro [7] | mean blood concentration [8] | IC50 for inhibition of cytokine signaling relative to IC50 for cytokine production (cytokine signaling) | drug concentrations in the brain versus in the blood [9]
C[S+]([O-])c1ccc(-c2nc(-c3ccc(F)cc3)c(-c3ccncc3)[nH]2)cc1 (stereo not shown) [SB203850] | no significant effect |  |  |  |  |  |  |  |  |  |  |  |  |  |  | 
O=c1ncn2nc(Sc3ccc(F)cc3F)ccc2c1-c1c(Cl)cccc1Cl [VX-745] |  | statistically significant difference | near normalization | 65 to 80 | No statistically significant differences | statistically significant difference | No statistically significant differences | one | no observed differences | statistically significant difference | statistically significant difference | Statistically significant differences | inhibits IL-1β production and signaling in vitro | approximately 75 ng/mL | half that for cytokine production | approximately two-fold
